We go through seven molecules from paper PMC166128 (BMC Infectious Diseases, 2003).

Like-named read-outs stand apart in the source and are kept apart here.

Data set [1] concerns VV, VSV, HSV-1, HSV-2, Coxsackie virus B4 and poliovirus-1. The following applies: cited from earlier work.
In data set [2] the test system is vaccinia virus Western Reserve (WR) strain. It counts as cell-based.
Data set [3] deals with vaccinia virus IHD-J (EEV). In kind it is cell-based.
The test system of data set [4] is vaccinia virus WR strain. In kind it is cell-based.
Data set [5] deals with vaccinia virus WR strain. In kind it is cell-based. The following applies: 16 h.
For a further data set, the system named is vaccinia virus. It counts as cell-based.
A further data set deals with CV-1 cells. The data set is described as follows: Cytostatic activity. To be noted: CV-1 cells seeded at 3.5 × 10^3 cells/well; 24 h incubation; cells counted.
The subject of another data set is HeLa S3 cells. The data set is described as follows: Cell proliferation assay, 3H-thymidine uptake. The following applies: 2 days + 16 h, single experiment.
In a further data set the test system is camelpox. To be noted: read-out: EC50 (camelpox); cited from earlier work.
The next data set has as its system vaccinia. The following applies: read-out: EC50 (vaccinia); cited from earlier work.
Another data set has as its system monkeypox. To be noted: read-out: EC50 (monkeypox); cited from earlier work.
Another data set has as its system cowpox. To be noted: read-out: EC50 (cowpox); cited from earlier work.
Data set [6] has as its system vaccinia virus International Health Department-J (IHD-J) strain. It counts as cell-based.

Turning to `O=C(O)c1ccc(-c2c3nc(c(-c4ccc(C(=O)O)cc4)c4ccc([nH]4)c(-c4ccc(C(=O)O)cc4)c4nc(c(-c5ccc(C(=O)O)cc5)c5ccc2[nH]5)C=C4)C=C3)cc1` [TPPC, meso-tetra(4-carboxyphenyl)porphyrin], in [1], the “EC50s for VV, VSV, HSV-1, HSV-2, Coxsackie virus B4 and poliovirus-1” value was not below 20 µg/mL.
Broadly, the % inhibition is the change of the read-out against control, counted positive when it falls. Read a high % inhibition as strong suppression. Turning to `C=CC1=C(C)c2cc3[n-]c(cc4nc(cc5[n-]c(cc1n2)c(C)c5C=C)C(C)=C4CCC(=O)O)c(CCC(=O)O)c3C.[Zn+2]` [ZnPPIX, zinc protoporphyrin], the “EC50 WR CV-1” value in data set [2] was 15 ± 12 µg/mL. For the same molecule, in [3], the “EC50 IHD-J (EEV) CV-1” value turned out to be 38 ± 7.8 µg/mL. Moreover, the “% inhibition” value in the data set with vaccinia virus WR strain [4] (25 µg/mL) was 98%; with vaccinia virus WR strain [4] (50 µg/mL), 99%; in the data set with vaccinia virus WR strain [5] (25 µg/mL) it was 65 ± 0.3%; with vaccinia virus WR strain [5] (50 µg/mL), 70 ± 4%; in the data set on vaccinia virus (25 µg/mL), 92 ± 1%; in the data set with vaccinia virus (50 µg/mL), 99 ± 7%. Besides, the titer was 2.5 × 10^5 pfu/mL in the data set on vaccinia virus WR strain [4] (25 µg/mL); 1.0 × 10^5 pfu/mL in the data set on vaccinia virus WR strain [4] (50 µg/mL); 7.2 × 10^5 pfu/mL in the data set with vaccinia virus WR strain [5] (25 µg/mL); 6.4 × 10^5 pfu/mL in the data set on vaccinia virus WR strain [5] (50 µg/mL); 2.1 × 10^4 pfu/mL in the data set with vaccinia virus (25 µg/mL); 3.2 × 10^3 pfu/mL with vaccinia virus (50 µg/mL). Also, the “CC50 Cytostatic activity” value in the data set with CV-1 cells is reported as 370 µg/mL. The “CC50 Cell proliferation” value in the data set on HeLa S3 cells was found to be 25 µg/mL.
One may read the EC50 as the concentration giving half of the maximal effect. On to `Nc1ccn(C[C@@H](CO)OCP(=O)(O)O)c(=O)n1` [cidofovir], for which the EC50 with camelpox was 2.3 µM; in the data set on vaccinia, 46.2 µM; in the data set with monkeypox, 27 µM; in the data set on cowpox, 58 µM.
In the case of “Fe meso-tetrakis(3,4-disulfonatomesityl)porphyrin [FeTMPS]”, the “EC50s for VV, VSV, HSV-1, HSV-2, Coxsackie virus B4 and poliovirus-1” value in data set [1] is reported as not below 20 µg/mL.
Regarding copper hematoporphyrin [CuHPIX], the “EC50 WR BSC-40” value in data set [2] stood at 0.03 ± 0.01 µg/mL. The “EC50 WR CV-1” value in data set [2] was determined as 7.8 ± 0.9 µg/mL. Also, the “EC50 IHD-J CV-1” value in data set [6] stood at 1.5 ± 0.4 µg/mL. Besides, the “EC50 IHD-J (EEV) BSC-40” value in data set [3] came to 0.32 ± 0.13 µg/mL. The “EC50 IHD-J (EEV) CV-1” value in data set [3] stood at 1.1 ± 0.4 µg/mL. Moreover, the “% inhibition” value is reported as 93% in the data set on vaccinia virus WR strain [4] (25 µg/mL); 97% in the data set with vaccinia virus WR strain [4] (50 µg/mL); 33 ± 9% in the data set on vaccinia virus WR strain [5] (25 µg/mL); 71 ± 4% in the data set on vaccinia virus WR strain [5] (50 µg/mL); 80 ± 2% with vaccinia virus (25 µg/mL); 91 ± 2% in the data set with vaccinia virus (50 µg/mL). Also, the titer is 1.1 × 10^6 pfu/mL in the data set with vaccinia virus WR strain [4] (25 µg/mL); 4.5 × 10^5 pfu/mL in the data set on vaccinia virus WR strain [4] (50 µg/mL); 1.3 × 10^6 pfu/mL in the data set with vaccinia virus WR strain [5] (25 µg/mL); 6.3 × 10^5 pfu/mL in the data set on vaccinia virus WR strain [5] (50 µg/mL); 5.0 × 10^4 pfu/mL with vaccinia virus (25 µg/mL); 2.3 × 10^4 pfu/mL in the data set with vaccinia virus (50 µg/mL). Further, in the data set with HeLa S3 cells, the “CC50 Cell proliferation” value was determined as 36 µg/mL.
For “sulfonated 5,10,15,20-tetra-naphthalen-1-yl-porphyrin [TNapPS]”, the “EC50 IHD-J (EEV) CV-1” value in data set [3] worked out at 1.0 ± 0.1 µg/mL. The “% inhibition” value in the data set with vaccinia virus WR strain [4] (25 µg/mL) is reported as 98%; in the data set on vaccinia virus WR strain [4] (50 µg/mL), 98%; in the data set with vaccinia virus WR strain [5] (25 µg/mL), 73 ± 16%; in the data set with vaccinia virus WR strain [5] (50 µg/mL) it was 92 ± 1%; in the data set on vaccinia virus (25 µg/mL), 87 ± 5%; in the data set on vaccinia virus (50 µg/mL), 95 ± 2%. Moreover, the titer in the data set with vaccinia virus WR strain [4] (25 µg/mL) is reported as 3.5 × 10^5 pfu/mL; with vaccinia virus WR strain [4] (50 µg/mL) it was 2.6 × 10^5 pfu/mL; with vaccinia virus WR strain [5] (25 µg/mL), 3.5 × 10^5 pfu/mL; in the data set on vaccinia virus WR strain [5] (50 µg/mL) it was 1.0 × 10^5 pfu/mL; in the data set with vaccinia virus (25 µg/mL) it was 3.3 × 10^4 pfu/mL; with vaccinia virus (50 µg/mL) it was 1.3 × 10^4 pfu/mL. In addition, in the data set on CV-1 cells, the “CC50 Cytostatic activity” value stood at 400 µg/mL.
Turning to “sulfonated copper phthalocyanine [CuPcS(3444)]”, the “EC50 IHD-J CV-1” value in [6] was 14 ± 5.3 µg/mL. In addition, the “EC50 IHD-J (EEV) BSC-40” value in data set [3] was determined as 50 ± 7 µg/mL. In data set [3], the “EC50 IHD-J (EEV) CV-1” value is 8.2 ± 1.3 µg/mL. Besides, the “% inhibition” value in the data set on vaccinia virus WR strain [4] (25 µg/mL) was 60%; with vaccinia virus WR strain [4] (50 µg/mL) it was 74%; with vaccinia virus WR strain [5] (25 µg/mL), 49 ± 21%; with vaccinia virus WR strain [5] (50 µg/mL), 59 ± 2%; with vaccinia virus (25 µg/mL) it was 92 ± 3%; with vaccinia virus (50 µg/mL), 90 ± 2%. Also, the titer is 6.3 × 10^6 pfu/mL in the data set with vaccinia virus WR strain [4] (25 µg/mL); 4.1 × 10^6 pfu/mL in the data set with vaccinia virus WR strain [4] (50 µg/mL); 9.3 × 10^5 pfu/mL in the data set on vaccinia virus WR strain [5] (25 µg/mL); 8.3 × 10^5 pfu/mL with vaccinia virus WR strain [5] (50 µg/mL); 2.1 × 10^4 pfu/mL in the data set with vaccinia virus (25 µg/mL); 2.4 × 10^4 pfu/mL in the data set on vaccinia virus (50 µg/mL). Also, the “CC50 Cytostatic activity” value with CV-1 cells is more than 1000 µg/mL. For the same molecule, the “CC50 Cell proliferation” value in the data set with HeLa S3 cells is recorded as more than 500 µg/mL.
